Source: EP3553061A1, “NEW INHIBITORS OF BONE RESORPTION” (CENTRE NATIONAL DE LA RECHERCHE SCIENTIFIQUE (CNRS), priority 2018, dated 2019)
Where “and” joins values, the source holds several entries; their conditions need not be identical. Equal entries are not always repeated. Where two headings read alike, the source gives them in different places.

Experiments:
[1] = tested on: ovariectomized mice; assay: Bone dynamics parameters in ovariectomized mice; type: in vivo, mouse; conditions: OVX mice
Method: The ovariectomized mouse was used as an in vivo model of pathological bone loss. […] Each group contained ten female C57BL/6J mice that were fourteen weeks of age at the beginning of in-life phase of the study. At the beginning of the in-life phase (at study day 0), mice were weighed and their surgical ovariectomy (OVX) and control (SHAM) operations were performed under analgesia and anaesthesia. […] was injected intra peritoneally (i.p.) to OVX animals, 20 mg/kg once (q.d., dose 1) or twice (b.i.d., dose 2) daily for 25 days, in a vehicle solution containing 0.485% carboxymethylcellulose (CMC) and 3% Tween 80. Control mice received the same volume of vehicle. The effects of treatment with reference compound zoledronate (100 μg/kg, subcutaneously, twice a week.) were studied by comparing OVX mice treated with zoledronate and vehicle with OVX control mice treated with vehicle. At study days 21 and 26, bone was labelled with subcutaneous injections of oxytetracycline and calcein green, respectively, in order to enable the analysis of optional dynamic parameters in bone histomorphometry. Blood for serum samples were harvested from saphenous vein at days -1, 13 and 27 of the study for bone dynamics marker dosage.

[2] = biological target: T1, DHR2 exchange domain of Dock5 (Homo sapiens, UniProt Q9H7D0); assay: In vitro Rac1 nucleotide exchange (mantGDP fluorescence) with purified recombinant proteins, Dock5; type: biochemical; conditions: inhibitor 20 and 60 µM
T1 construct: catalyzed by the DHR2 exchange domain of Dock5 or by the Dbl exchange domain of TRIO; made in house; host or cells: E. coli
T1 sequence (Q9H7D0 1231-1642 limits assumed): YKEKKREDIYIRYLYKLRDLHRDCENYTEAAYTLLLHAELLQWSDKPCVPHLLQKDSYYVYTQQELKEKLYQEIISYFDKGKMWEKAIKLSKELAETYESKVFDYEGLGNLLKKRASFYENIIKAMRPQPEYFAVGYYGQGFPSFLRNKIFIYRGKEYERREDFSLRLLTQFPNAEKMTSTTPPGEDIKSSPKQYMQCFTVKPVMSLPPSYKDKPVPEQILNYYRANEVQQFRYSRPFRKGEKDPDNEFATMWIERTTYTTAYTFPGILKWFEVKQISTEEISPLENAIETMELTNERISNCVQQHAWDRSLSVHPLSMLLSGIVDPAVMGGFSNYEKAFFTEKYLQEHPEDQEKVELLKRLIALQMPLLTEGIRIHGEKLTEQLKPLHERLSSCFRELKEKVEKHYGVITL
Method: (§1) The effect of the molecules has been tested on the nucleotide exchange reaction by the GTPase Rac1 catalyzed by the DHR2 exchange domain of Dock5 or by the Dbl exchange domain of TRIO, using purified recombinant proteins produced in E. coli bacteria (Vives, Cres et al., 2015).
(§2) The activity of the inhibitors is measured by fluorescence spectroscopy on 96-well plates with a FlexStation 3 fluorimeter, in a reaction volume of 150 µL, without stirring, at a temperature of 26 ° C. Each plate contains 4 inhibitors at two concentrations (20 and 60 µM), 2 GEFs (DOCK5 and TRIO) and includes controls without inhibitor (1% final DMSO). The inhibitors are diluted to DMSO at an intermediate concentration of 2 or 6 mM, ie 1% final DMSO. Rac1-mantGDP (2 µM), DOCK5 or TRIO (0,2 µM) and the inhibitors are mixed immediately before the beginning of measurements. The exchange reaction is triggered by series of 8 wells in parallel by addition of 100 µM of GTP with mixing by pipetting (Flex mode). The kinetics is followed during 800 seconds. All the measurements are made in duplicate on the same plate. The total playing time of a plate is about 80 minutes. The kinetics of exchange are analyzed with a mono-exponential model F = F0 + ΔFe - kt with the KaleidaGraph ™ software, where F0 is the initial fluorescence and k (or kobs) is the exchange rate constant.

[3] = biological target: T2, human Dock5 (Homo sapiens, UniProt Q9H7D0); assay: Pull down assay of Rac activation by human Dock5 DHR2 in transfected 293T cells; type: cell-based; conditions: for inhibition at 50 µM / inhibition at 100 µM: HEK-293T; for IC50: 1 hour treatment
T2 construct: plasmid expressing the catalytic DHR2 domain of mouse or human Dock5; expressed in transfected cells; host or cells: 293T cells
T2 sequence (Q9H7D0 1231-1642 limits assumed): as above
Method: (§3) Compounds E73, E88 and E78 were tested for their inhibiting effect of the activation of Rac by mouse Dock5 of and for certain human Dock5 according to a screening test using a pull down assay as represented in Figure 1.
Methodology (Figure 1): cells 293T seeded onto 100 mm diameter plates in a DMEM culture medium containing 10% serum in an incubator in 5.5% CO2 humidified atmosphere at 37°C. When they reach the density of 5x10^6 cells per plate, cells are transfected with 8 µg of plasmid expressing the catalytic DHR2 domain of mouse or human Dock5 in order to activate endogenous GTPase Rac. After 24 hours, the cells are lifted using trypsin and are seeded 10^6 per well in 6-well plates of 35 mms in diameter. The following day, the cells are put in contact during one hour with the compound, in a mother solution at 20 mM into 100% DMSO, to a test concentration of 100 µM into 0.5% DMSO in the DMEM medium containing 0.1% of BSA. The basal activation of Rac by Dock5 is measured from the cells treated with 0.5% DMSO. After treatment, the cells are observed under the optical microscope to make sure of the absence of any toxic effect of the compound. If cell suffering is detected, the test is invalidated and the compound is retested at a lower dosage. The cells are then lysed in 100 µl of the pull down buffer (10% glycerol, 50 mm Tris pH 7.4, 100 mM NaCl, 1% IGEPAL® CA-630 (SIGMA I3021), 2 mM MgCl2 supplemented with proteases inhibitors) and the lysate is incubated during one hour with 20 µg of sepharose beads coupled with the fusion protein GST-PAK-CRIB, which binds specifically the activated form of GTPase Rac, which is bound to GTP. After centrifugation and washings, the proteins associated with the beads, including active Rac GTPase, are denatured and loaded on an SDS PAGE gel. […] For each compound tested, the level of active Rac GTPase is quantified using the Image J software and is normalized to the concentration of total protein in the whole cell lysate. The efficiency of the molecule is defined by the level of active Rac after treatment compared to the level of active Rac in the cells treated with DMSO (control). An activity is considered as inhibitory if the level of Rac activation decreases by at least 10%, 20%, in particular at least 30%, 40%, and preferably at least 50% compared to the control treated with DMSO (Table 1).
The same approach was used to test the potency of molecules of the 48ED family, on the activity of human Dock5 DHR2 (Table 2). Table 2: Inhibitory activity of the compounds of the 48ED family on human Dock5 activity.

[4] = biological target: T3, Dbl exchange domain of TRIO (Homo sapiens, UniProt O75962); assay: In vitro Rac1 nucleotide exchange (mantGDP fluorescence) with purified recombinant proteins, TRIO; type: biochemical; conditions: inhibitor 20 and 60 µM
T3 construct: catalyzed by the DHR2 exchange domain of Dock5 or by the Dbl exchange domain of TRIO; made in house; host or cells: E. coli
Method: as §1, §2

[5] = cited from earlier work
[6] = biological target: T4, mouse Dock5 (Mus musculus, UniProt B2RY04); assay: Pull down assay of Rac activation by mouse Dock5 DHR2 in transfected 293T cells; type: cell-based
T4 construct: plasmid expressing the catalytic DHR2 domain of mouse or human Dock5; expressed in transfected cells; host or cells: 293T cells
T4 sequence (B2RY04 1231-1642 limits assumed): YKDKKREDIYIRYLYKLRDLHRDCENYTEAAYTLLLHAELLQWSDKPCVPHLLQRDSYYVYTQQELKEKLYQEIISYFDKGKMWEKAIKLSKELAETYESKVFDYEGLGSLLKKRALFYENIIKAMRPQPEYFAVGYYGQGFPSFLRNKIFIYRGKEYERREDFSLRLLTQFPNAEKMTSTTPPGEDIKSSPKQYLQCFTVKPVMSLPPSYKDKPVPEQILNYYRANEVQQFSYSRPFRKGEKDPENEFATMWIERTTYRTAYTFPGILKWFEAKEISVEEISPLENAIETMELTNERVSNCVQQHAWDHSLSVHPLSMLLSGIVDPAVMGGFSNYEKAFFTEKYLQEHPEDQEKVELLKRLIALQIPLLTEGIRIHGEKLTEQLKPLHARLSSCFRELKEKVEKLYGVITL
Method: as §3
Methodology (Figure 1): cells 293T seeded onto 100 mm diameter plates in a DMEM culture medium containing 10% serum in an incubator in 5.5% CO2 humidified atmosphere at 37°C. When they reach the density of 5x10^6 cells per plate, cells are transfected with 8 µg of plasmid expressing the catalytic DHR2 domain of mouse or human Dock5 in order to activate endogenous GTPase Rac. After 24 hours, the cells are lifted using trypsin and are seeded 10^6 per well in 6-well plates of 35 mms in diameter. The following day, the cells are put in contact during one hour with the compound, in a mother solution at 20 mM into 100% DMSO, to a test concentration of 100 µM into 0.5% DMSO in the DMEM medium containing 0.1% of BSA. The basal activation of Rac by Dock5 is measured from the cells treated with 0.5% DMSO. […] If cell suffering is detected, the test is invalidated and the compound is retested at a lower dosage. […] For each compound tested, the level of active Rac GTPase is quantified using the Image J software and is normalized to the concentration of total protein in the whole cell lysate. […]

[7] = 20 mg/kg, i.p., b.i.d., first two weeks of in-life phase, vs OVX vehicle
[8] = 20 mg/kg, i.p., q.d. and b.i.d., study day 28, vs OVX vehicle
[9] = 20 mg/kg, i.p., q.d. and b.i.d, study day 28
[10] = Table 3, human Dock5, test concentration 100 µM, 1 hour, replicate values, 100 µM
[11] = Table 3, human Dock5, test concentration 100 µM, 1 hour, replicate values, read-out: Inhibition
[12] = zoledronate 100 µg/kg, subcutaneously, twice a week, study day 28, vs OVX vehicle

O=S1(=O)N(c2ccccc2)C[C@H](O)[C@]12CCN(Cc1ccc(Cl)cc1)C2 (racemic) [E197, rac-(4S,5R)-7-(4-chlorobenzyl)-4-hydroxy-2-phenyl-1-thia-2,7-diazaspiro[4.4]nonane 1,1-dioxide]
trabecular separation (Tb.Sp) ([1]; 20 mg/kg, i.p., b.i.d., bone histomorphometry, study day 28, vs OVX vehicle): decreased | relative change in serum PINP levels ([1]; 20 mg/kg, i.p., b.i.d., entire in-life phase, vs OVX vehicle): decreased | relative change in serum CTX-I levels [1, 7]: decreased | relative change in serum PINP levels [1, 7]: decreased | trabecular bone volume fraction (BV/TV) in femoral and tibial metaphyses ([1]; 20 mg/kg, i.p., b.i.d., study day 28, vs OVX vehicle): increased | trabecular number (Tb.N) in tibial metaphysis ([1]; 20 mg/kg, i.p., b.i.d., µCT, study day 28, vs OVX vehicle): increased | serum levels of bone turnover biomarker osteoclacin ([1]; 20 mg/kg, i.p., q.d. and b.i.d., entire in-life phase): did not decreased | cortical bone specific surface (BS/BV) in tibial diaphysis [1, 8]: decreased | cortical thickness (Ct.Th) in tibial diaphysis [1, 8]: increased | mineral apposition rate (MAR) in trabecular bone in femoral metaphysis [1, 9]: did not decreased | mineralizing surface per bone surface (MS/BS) in trabecular bone in femoral metaphysis [1, 9]: did not decreased | body weight ([1]; in-life phase (day 0 to day 28)): did not affect body weight | effect on the nucleotide exchange reaction of Rac1 catalyzed by Dock5 [2]: inhibit Dock 5 | inhibition at 50 µM ([3]; Table 3, human Dock5, at 50µM): 80% | Inhibition [3, 10]: 55% and 90% | IC50 ([3]; human Dock5): 36 µM | effect on the nucleotide exchange reaction of Rac1 catalyzed by TRIO [4]: not TRIO

O=S1(=O)N(c2ccccc2)C[C@H](O)[C@]12CCN(Cc1ccc(Cl)c(Cl)c1)C2 (racemic) [E202, rac-(4S,5R)-7-(3,4-dichlorobenzyl)-4-hydroxy-2-phenyl-1-thia-2,7-diazaspiro[4.4]nonane 1,1-dioxide]
effect on the nucleotide exchange reaction of Rac1 catalyzed by Dock5 [2]: inhibit Dock 5 | inhibition at 50 µM ([3]; Table 3, human Dock5, at 50µM): 95% | Inhibition ([3]; Table 3, human Dock5, at 50µM): 90% | IC50 ([3]; human Dock5): 29 µM | effect on the nucleotide exchange reaction of Rac1 catalyzed by TRIO [4]: not TRIO

O=S(=O)(Nc1cc(Cl)cc(Cl)c1)c1ccccc1 [C21, N-(3,5-dichlorophenyl)-benzenesulfonamide]
bone formation ([5]; mice treated daily along 4 weeks): Bone formation is maintained | histological observation of all tissues ([5]; mice): did not reveal any anomaly | development of bone metastases ([5]; mouse): reduces the development of bone metastases | bone resorption ([5]; mouse, postmenopausal osteoporosis, inflammatory and metastasis-induced bone loss models, intravenous or intraperitoneal administration): inhibits effectively the bone resorption

O=S1(=O)N(c2ccccc2)C[C@H](O)[C@]12CCN(Cc1cccc(Cl)c1)C2 [E73]
inhibition at 100 µM ([3]; Table 1a, test concentration 100 µM, 1 hour, replicate values, Negative = Rac activation does not decrease, read-out: Inhibition Dock5 (%) Human): 70% | Inhibition Dock5 (%) Human ([3]; Table 1a, test concentration 100 µM, 1 hour, replicate values, Negative = Rac activation does not decrease, 100 µM): 60% and 55% | Inhibition ([3]; Table 2, human Dock5 DHR2, test concentration 100 µM, 1 hour, replicate values, Negative = Rac activation does not decrease, 100 µM): 55% and 95% (3×) and 50% and 90% (2×) | IC50 ([3]; human Dock5): 36 µM | inhibition at 100 µM ([6]; HEK-293T, 100 µM, species of Dock5 not given): ~95% | IC50 ([6]; mouse DHR2 of Dock5): 17 µM

CCOC(=O)CO[C@H]1CN(c2ccccc2)S(=O)(=O)[C@@]12CCN(Cc1ccccc1)C2 [E231]
inhibition at 50 µM ([3]; Table 3, human Dock5, at 50µM): 70%

O=C(O)CO[C@H]1CN(c2ccccc2)S(=O)(=O)[C@@]12CCN(Cc1ccccc1)C2 [E232]
Inhibition [3, 10]: 40% (2×) and 10%

O=S1(=O)N(C2CCCCC2)C[C@H](O)[C@]12CCN(Cc1ccccc1)C2 [E233]
inhibition at 100 µM [3, 11]: 70% | Inhibition [3, 10]: 60%

O=S1(=O)N(C2CCCCC2)C[C@@H](O)[C@]12CCN(Cc1ccccc1)C2 [E234]
Inhibition [3, 10]: 85% and 55% and 40% and 60%

O=S1(=O)N(c2cccc(Cl)c2)C[C@H](O)[C@]12CCN(Cc1ccccc1)C2 [E235]
inhibition at 100 µM [3, 11]: 80% | Inhibition [3, 10]: 85%

O=S1(=O)N(c2cccc(Cl)c2)C[C@@H](O)[C@]12CCN(Cc1ccccc1)C2 [E236]
inhibition at 50 µM ([3]; Table 3, human Dock5, at 50µM): 20% | inhibition at 100 µM [3, 11]: 70%

O=P(O)(O)C(O)(Cn1ccnc1)P(=O)(O)O [Zoledronate, reference compound]
relative change in serum osteoclacin levels ([1]; zoledronate 100 µg/kg, subcutaneously, twice a week, in-life phase, vs OVX vehicle): decreased | mineral apposition rate (MAR) in trabecular bone in femoral metaphysis [1, 12]: decreased | mineralizing surface per bone surface (MS/BS) in trabecular bone in femoral metaphysis [1, 12]: decreased
